This note sets out measurements from US9133154B2, “Substituted 3-phenylpropylamine derivatives for the treatment of ophthalmic diseases and disorders” (Acucela Inc., priority 2013, dated 2015).

Entries after “also recorded” stand apart in the source; their conditions may differ. Read-outs that look alike come from different tables or passages of the source.

Assay [1] relates to isomerase (recovery of 11-cis-retinal after bleaching). The assay can be described thus: In vivo murine isomerase assay. The conditions noted are these: mice, oral gavage.
Description: The capability of compounds described herein to inhibit isomerase was determined by an in vivo murine isomerase assay. […] The recovery of 11-cis-retinal after bleaching can be used to estimate the activity of isomerase in vivo. Delayed recovery, as represented by lower 11-cis-retinal oxime levels, indicates inhibition of isomerization reaction.
Mice were gavaged with the test compound. […] The mice were allowed to recover 2 hours in the dark. The animals were then sacrificed by carbon dioxide inhalation. Retinoids were extracted from the eye and the regeneration of 11-cis-retinal was assessed at various time intervals.
After the mice were sacrificed, the eyes were immediately removed and placed in liquid nitrogen for storage.
The eyes were placed in 500 μL of bis-tris propane buffer (10 mM, pH˜7.3) and 20 μL of 0.8M hydroxile amine (pH˜7.3). The eyes were cut up into small pieces with small iris scissors and then thoroughly homogenized at 30000 rpm with a mechanical homogenizer (Polytron PT 1300 D) in the tube until no visible tissue remained. 500 μL of methanol and 500 μL of heptane were added to each tube. The tubes were attached to a vortexer so that the contents were mixed thoroughly for 15 minutes in room temperature. The organic phase was separated from the aqueous phase by centrifugation for 10 min at 13K rpm, 4° C. 240 μL of the solution from the top layer (organic phase) was removed and transferred to clean 300 μl glass inserts in HPLC vials using glass pipette and the vials were crimped shut tightly.
The samples were analyzed on an Agilent 1100 HPLC system with normal phase column: SILICA (Beckman Coutlier, dp 5 μm, 4.6 mM×250 mM). […] Loading volume for each sample was 100 μA detection wavelength was 360 nm. The area under the curve for 11-cis retinal oxime was calculated by Agilent Chemstation software and was recorded manually. Data processing was performed using Prizm software.
Positive control mice (no compound administered) were sacrificed fully dark-adapted and the eye retinoids analyzed. Light (bleached) control mice (no compound administered) were sacrificed and retinoids isolated and analyzed immediately after light treatment.
A time course study was performed to determine the isomerase inhibitory activity of the test compound. […] The animals were then “photo-bleached” (5000 Lux white light for 10 minutes) at 2, 4, 8, 16 and 24 hours after dosing, and returned to darkness to allow recovery of the 11-cis-retinal content of the eyes. Mice were sacrificed 2 hours after bleaching, eyes were enucleated, and retinoid content is analyzed by HPLC.
Recovery control mice (vehicle-only treated) were light-treated and left to recover for 2 hours in the dark before sacrifice and analysis. Light control mice (vehicle only treated) were sacrificed for analysis immediately after photo-bleaching.
An in vivo dose response isomerase inhibition study was performed with test compound. […] Recovery and retinoid analysis were performed as described above. Dark control mice were vehicle-only treated, sacrificed fully dark adapted without light treatment, and analyzed. Recovery control mice and light control mice were included in the study as per the initial phase.
For assay [2], the target named is T1, recombinant human RPE65 and LRAT (visual cycle isomerase) (Homo sapiens, UniProt Q16518).
T1 sequence (Q16518 2-533): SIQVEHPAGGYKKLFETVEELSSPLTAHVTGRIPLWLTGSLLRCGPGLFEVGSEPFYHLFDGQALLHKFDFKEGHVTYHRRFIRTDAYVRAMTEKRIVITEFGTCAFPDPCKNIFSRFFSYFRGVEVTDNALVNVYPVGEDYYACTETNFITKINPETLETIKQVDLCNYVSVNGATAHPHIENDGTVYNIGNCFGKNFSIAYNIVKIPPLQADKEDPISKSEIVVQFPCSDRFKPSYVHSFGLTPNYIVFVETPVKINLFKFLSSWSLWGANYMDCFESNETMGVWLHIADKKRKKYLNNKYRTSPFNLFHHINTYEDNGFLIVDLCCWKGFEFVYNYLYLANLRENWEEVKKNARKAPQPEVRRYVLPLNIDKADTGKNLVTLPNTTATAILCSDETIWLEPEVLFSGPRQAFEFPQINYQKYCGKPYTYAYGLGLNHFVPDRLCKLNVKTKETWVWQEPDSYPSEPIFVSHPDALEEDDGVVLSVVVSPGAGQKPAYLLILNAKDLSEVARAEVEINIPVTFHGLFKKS
Put plainly: Human in vitro isomerase inhibition assay. The conditions noted are these: comparison compounds.

Assay [3] concerns regeneration of 11-cis-retinal. The assay can be described thus: Single dose time course in the in vivo isomerase assay at 0.3 mg/kg. On the set-up: species or system BALB/c mice. The settings on record: BALB/c mice, single oral 0.3 mg/kg; for activity at 0.3 mg/kg: Mus musculus, read-out: Percent Control (Avg. % Inhibition). As for the experimental part:
(§1) All test compounds were stored at room temperature, dessicated.
The compounds were dissolved in di-water at the concentration of 0.068 mg/mL and stored overnight at 4° C.
52 Male BALB/c mice (Charles River Laboratories) were used for this study. The mice were approximately 8 weeks at the initiation of dosing with an average body weight of 23 grams.
The day prior to dose administration 52 BALB/c mice were placed into a dark room and dark adapted for a minimum of 12 hours prior to dose administration. The mice were maintained in the dark for the duration of the study.
(§2) Each animal was removed from its cage and dosed accordingly to the study design in Table 10 (see below). Each animal was administered 0.1 mL of the appropriate test article or vehicle orally using a 1 mL syringe fitted with a 23 gauge oral gavage needle. At 2, 4, 6, 8, 16 or 24 hours following dose administration, animals were removed from the dark and exposed to 5000 Lux white light for 10 minutes to photobleach their eyes. Following the completion of the photobleach the animals were returned to the dark for 2 hours to allow for the regeneration of 11-cis-retinal in the eyes. Two hours after photobleaching each animal was euthanized with carbon dioxide followed by cervical dislocation, in the dark under red light. The light control group was euthanized immediately following photobleaching. Immediately following the cervical dislocation both eyes of each animal were removed and transferred into separate tubes, flash frozen in liquid nitrogen and stored in the dark at −80° C. until processing and analysis.
(§3) All sample processing procedures were performed in the dark under red light.
Extracted samples were analyzed using an Agilent 1100 HPLC system according to the procedure outlined in Table 12 (see below)
(§4) HPLC analysis of the eyes measures the peak area units of the 110cis-Ral-Oxime_syn. Signal.
(§5) Data analysis % inhibition (drug vs. recovery control). % control (drug vs. light control), and One-way ANOVA (followed by Tukey's Multiple Comparison) were performed using peak area units and performed by Prism software. Data are represented as mean and standard deviation.

For assay [4], the system named is retinal isomerase activity (recovery of 11-cis-retinal). The assay can be described thus: Comparative in vivo murine isomerase assay, dose response. Further details: species or system BALB/c mice. The settings on record: BALB/c mice, 2 hours; for Avg. % Inhibition: 11-cis-retinal, drug vs. recovery control. As for the experimental part: as §1
On the day prior to dose administration compound A and compound D were weighed into new empty glass vials. The compounds were dissolved in di-water at the concentration of 0.833 mg/mL compound A and 0.892 mg/mL compound D, serially diluted into various concentrations, and stored overnight at 4° C.
56 Male BALB/c mice (Charles River Laboratories) were used for this study. The mice were approximately 8 weeks at the initiation of dosing with an average body weight of 24 grams.
The day prior to dose administration 56 BALB/c mice were placed into a dark room and dark adapted for a minimum of 12 hours prior to dose administration. The mice were maintained in the dark for the duration of the study.
as §2, with “Table 4” for “Table 10”, “appropriate compound” for “appropriate test article”, “vehicle via oral gavage” for “vehicle orally”, “needle. Two” for “needle. At 2, 4, 6, 8, 16 or 24”
as §3
Extracted samples were analyzed using an Agilent 1100 HPLC system according to the procedure outlined in Table 6 (see below)
as §4, §5

Broadly, the % Inhibition is the drop in the measured response relative to a control, in per cent. `NCC[C@@H](O)c1cccc(OCC2CCCOC2)c1` (mixture of isomers) [Example 3, (1R)-3-Amino-1-(3-((tetrahydro-2H-pyran-3-yl)methoxy)phenyl)propan-1-ol]: the “% Inhibition” value in assay [1] (dose 0.3 mg/kg, time 2 h) is reported as 75.1%.
On to `COC(=O)N1CCC(COc2cccc([C@H](O)CCN)c2)CC1` [Example 17, (R)-Methyl 4-((3-(3-amino-1-hydroxypropyl)phenoxy)methyl)piperidine-1-carboxylate], for which, in assay [1] (dose 1 mg/kg, time 4 h), the “% Inhibition” value was found to be 85%.
As a reminder, the IC50 is the concentration that inhibits the measured activity by half. As to `NCC[C@@H](O)c1cccc(NCC2CCCCC2)c1`, the IC50 in assay [2] came out at 6.3 nM.
With `NCCC(O)c1cccc(OCC2CCCCO2)c1` (stereo not shown) [compound D, reference compound], the “significance of inhibitory effect on the recovery of 11-cis-retinal vs. recovery control” value is “not a statistically significant difference, P>0.05 for any time points; also recorded: no significant inhibitory effect at any time points; also recorded: did not exhibit a significant difference from the control group at any time point” in assay [3] (2, 4, 6, 8, 16 and 24 hours, 0.3 mg/kg); “statistically significant difference, P<0.001 for 1 and 3 mg/kg dose levels; also recorded: significant inhibitory effect at 1 mg/kg and 3 mg/kg dose levels” in assay [4] (single oral dose 0.03-3 mg/kg). Also, the activity at 0.3 mg/kg in assay [3] (time point 2 hours) is 86.8%; in assay [3] (time point 4 hours), 102%; in assay [3] (time point 6 hours), 87.9%; in assay [3] (time point 8 hours) it was 94.6%; in assay [3] (time point 16 hours), 104%; in assay [3] (time point 24 hours), 89.5%. Further, the IC50 in assay [2] worked out at 24 nM. Further, the “Avg. % Inhibition” value in assay [4] (oral 0.3 mg/kg, 0.3 mg/kg) was “no inhibition”; in assay [4] (oral 3 mg/kg, 3 mg/kg), “same level of inhibition”. In addition, in assay [4] (single oral dose), the “IC50 (dose response experiment)” value came to 0.59 mg/kg. Besides, the “dose at which 11-cis-retinal recovery was inhibited by 50%” value in assay [4] (single oral dose) came out at 0.59 mg/kg.
